For data set [1] the following is noted: amide bond, 13-membered ring, CDMT/NMM.
Data set [2] concerns the target T1, CFTR (F508del/MF-HBE cells) (Homo sapiens, UniProt P13569, DEL508-508).
T1 construct: human bronchial epithelial (HBE) cells derived from CF subjects heterozygous for F508del and a minimal function CFTR mutation (F508del/MF-HBE); endogenous in cells; host or cells: Primary human bronchial epithelial cells from CF subjects (F508del/MF genotype), differentiated at an air-liquid interface
Description: Ussing chamber assay of CFTR-mediated short-circuit currents, Assay C (0.026 μM to 25 μM, 6 concentrations). The format is cell-based. The settings on record: with 33 nM potentiator and 18 μM Tezacaftor, 20% human serum; for Emax: read-out: C Max activity (%). In short, it runs like this: (§1)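 Short-circuit current was recorded at 37 °C under voltage clamp (0 mV) with amiloride 30 μM apically, forskolin 20 μM activation, then BPO/GlyH-101/inh-172 (20 μM each) to isolate CFTR current. Before recording, corrector exposure lasted 18–24 h with 18 μM tezacaftor, 20% human serum, and 33 nM (dose–response) or 44 nM (1 μM fixed) potentiator, maintained throughout.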

Data set [3] has as its target T1, CFTR (F508del/MF-HBE cells). Description: Ussing chamber assay of CFTR-mediated short-circuit currents, Assay D (single concentration of 1 μM). The format is cell-based. The settings on record: with 44 nM potentiator and 18 μM Tezacaftor, 18-24 hours, 20% human serum. In short, it runs like this: as §1

Read-outs that look alike come from different tables or passages of the source.

Usually EC50 stands for the concentration at which the effect is half-maximal.

T1 sequence (P13569 with tags, fused parts or gaps DEL508-508): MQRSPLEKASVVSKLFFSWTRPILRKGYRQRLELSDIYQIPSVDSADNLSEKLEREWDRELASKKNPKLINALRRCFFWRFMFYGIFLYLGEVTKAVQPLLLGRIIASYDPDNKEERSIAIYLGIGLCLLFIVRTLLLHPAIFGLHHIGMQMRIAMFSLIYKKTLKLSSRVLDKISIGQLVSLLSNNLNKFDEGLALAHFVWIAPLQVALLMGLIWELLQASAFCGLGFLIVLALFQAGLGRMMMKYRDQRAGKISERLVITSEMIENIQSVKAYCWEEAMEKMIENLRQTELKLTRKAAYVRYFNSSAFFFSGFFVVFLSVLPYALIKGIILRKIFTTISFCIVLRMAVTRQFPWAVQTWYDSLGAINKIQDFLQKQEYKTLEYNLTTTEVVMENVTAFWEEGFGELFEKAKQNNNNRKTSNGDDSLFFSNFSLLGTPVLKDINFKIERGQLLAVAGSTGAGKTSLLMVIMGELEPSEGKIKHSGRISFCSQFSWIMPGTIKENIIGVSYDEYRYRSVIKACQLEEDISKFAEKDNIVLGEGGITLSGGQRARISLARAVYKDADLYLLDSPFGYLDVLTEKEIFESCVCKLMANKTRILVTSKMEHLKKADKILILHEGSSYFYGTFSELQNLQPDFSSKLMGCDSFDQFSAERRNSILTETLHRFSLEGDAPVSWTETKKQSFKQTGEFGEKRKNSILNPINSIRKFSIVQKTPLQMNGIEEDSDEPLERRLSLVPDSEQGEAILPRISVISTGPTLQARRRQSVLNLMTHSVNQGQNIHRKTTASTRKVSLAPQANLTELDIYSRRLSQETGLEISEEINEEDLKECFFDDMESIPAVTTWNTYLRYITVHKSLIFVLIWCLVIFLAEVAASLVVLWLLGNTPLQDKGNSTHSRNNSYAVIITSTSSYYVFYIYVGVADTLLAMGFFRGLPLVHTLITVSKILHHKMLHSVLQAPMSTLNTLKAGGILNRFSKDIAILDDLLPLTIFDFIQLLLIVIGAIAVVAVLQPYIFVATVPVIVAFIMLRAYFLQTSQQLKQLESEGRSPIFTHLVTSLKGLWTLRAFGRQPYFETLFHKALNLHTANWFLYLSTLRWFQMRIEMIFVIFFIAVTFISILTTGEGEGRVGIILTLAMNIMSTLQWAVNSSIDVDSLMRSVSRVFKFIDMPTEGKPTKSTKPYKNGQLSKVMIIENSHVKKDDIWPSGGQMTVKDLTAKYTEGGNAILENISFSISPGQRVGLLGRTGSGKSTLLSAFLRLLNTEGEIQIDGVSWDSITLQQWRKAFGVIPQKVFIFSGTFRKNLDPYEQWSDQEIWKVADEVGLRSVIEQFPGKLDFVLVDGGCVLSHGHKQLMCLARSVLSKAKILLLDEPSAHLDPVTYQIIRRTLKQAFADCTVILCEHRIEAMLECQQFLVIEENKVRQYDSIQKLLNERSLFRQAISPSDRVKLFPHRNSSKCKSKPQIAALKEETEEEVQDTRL

In the case of `Cc1cccc(C)c1-c1cc2nc(n1)NS(=O)(=O)c1cccc(c1)C(=O)N(Cc1cnc3cc(C(C)(C)C)[nH]c3n1)[C@H](CC1(C)CC1)CO2` [IV-54, (11R)-12-[(6-tert-butyl-5H-pyrrolo[2,3-b]pyrazin-3-yl)methyl]-6-(2,6-dimethylphenyl)-11-[(1-methylcyclopropyl)methyl]-2,2-dioxo-9-oxa-2λ^6-thia-3,5,12,19-tetrazatricyclo[12.3.1.14,8]nonadeca-1(18),4(19),5,7,14,16-hexaen-13-one], the ring closure, yield after HPLC in data set [1] (from Cc1cccc(C)c1-c1cc(OC[C@@H](CC2(C)CC2)NCc2cnc3cc(C(C)(C)C)[nH]c3n2)nc(NS(=O)(=O)c2cccc(C(=O)O)c2)n1, DMF, 9.99 mM, 25.0 °C, 5.5 h) stood at 44%. Besides, in data set [2], the 50% effective concentration (EC50) was in the range of 3000 to 30000 nM and the Emax was more than 60%.

In turn, `Cc1cccc(C)c1-c1cc2nc(n1)NS(=O)(=O)c1cccc(c1)C(=O)N(Cc1cnc3oc(C4CC4)cc3n1)[C@H](Cc1ccccc1)CO2` [Compound I-191, (11R)-11-Benzyl-12-[(6-cyclopropylfuro[2,3-b]pyrazin-2-yl)methyl]-6-(2,6-dimethylphenyl)-2,2-dioxo-9-oxa-2λ^6-thia-3,5,12,19-tetrazatricyclo[12.3.1.14,8]nonadeca-1(18),4(19),5,7,14,16-hexaen-13-one] gave a ring closure, yield after HPLC in data set [1] (from Cc1cccc(C)c1-c1cc(OC[C@@H](Cc2ccccc2)NCc2cnc3oc(C4CC4)cc3n2)nc(NS(=O)(=O)c2cccc(C(=O)O)c2)n1, DMSO, 2.75 h) of 60%. The “D activity at 1 μM (%)” value in data set [3] is “+++ (+++ is >60%)”.

`Cc1cccc(C)c1-c1cc2nc(n1)NS(=O)(=O)c1cccc(c1)C(=O)N(Cc1cnc3cc(C(C)(C)C(F)(F)F)n(C)c3n1)[C@H](CC13CC(C1)C3)CO2` [IV-102, (11R)-11-(1-bicyclo[1.1.1]pentanylmethyl)-6-(2,6-dimethylphenyl)-12-[[5-methyl-6-(2,2,2-trifluoro-1,1-dimethyl-ethyl)pyrrolo[2,3-b]pyrazin-3-yl]methyl]-2,2-dioxo-9-oxa-2λ^6-thia-3,5,12,19-tetrazatricyclo[12.3.1.14,8]nonadeca-1(18),4(19),5,7,14,16-hexaen-13-one] had a ring closure, yield after HPLC in data set [1] (from Cc1cccc(C)c1-c1cc(OC[C@@H](CC23CC(C2)C3)NCc2cnc3cc(C(C)(C)C(F)(F)F)n(C)c3n2)nc(NS(=O)(=O)c2cccc(C(=O)O)c2)n1, DMF, 9.8 mM, 25.0 °C, 4.0 h) of 65%. In data set [2], the EC50 is less than 1000 nM and the Emax is more than 60%.

On to `Cc1cccc(C)c1-c1cc2nc(n1)NS(=O)(=O)c1cccc(c1)C(=O)N(Cc1cnc3sc(C4CC4)cc3n1)[C@H](CC13CC(C1)C3)CO2` [IV-42, (11R)-11-(1-bicyclo[1.1.1]pentanylmethyl)-12-[(6-cyclopropylthieno[2,3-b]pyrazin-2-yl)methyl]-6-(2,6-dimethylphenyl)-2,2-dioxo-9-oxa-2λ^6-thia-3,5,12,19-tetrazatricyclo[12.3.1.14,8]nonadeca-1(18),4(19),5,7,14,16-hexaen-13-one], for which the ring closure, yield after HPLC in data set [1] (from Cc1cccc(C)c1-c1cc(OC[C@@H](CC23CC(C2)C3)NCc2cnc3sc(C4CC4)cc3n2)nc(NS(=O)(=O)c2cccc(C(=O)O)c2)n1, DMF, 8.92 mM, 25.0 °C, 18.0 h) was found to be 54%. In addition, in data set [2], the 50% effective concentration (EC50) is 1000 to 3000 nM and the Emax was more than 60%.

`Cc1cccc(C)c1-c1cc2nc(n1)NS(=O)(=O)c1cccc(c1)C(=O)N(Cc1cnc3oc(C4(C)CCC4)cc3n1)[C@H](CC1(C)CC1)CO2` [Compound I-143, (11R)-6-(2,6-Dimethylphenyl)-12-[[6-(1-methylcyclobutyl)furo[2,3-b]pyrazin-2-yl]methyl]-11-[(1-methylcyclopropyl)methyl]-2,2-dioxo-9-oxa-2λ^6-thia-3,5,12,19-tetrazatricyclo[12.3.1.14,8]nonadeca-1(18),4(19),5,7,14,16-hexaen-13-one] registered a ring closure, yield after HPLC in data set [1] (from Cc1cccc(C)c1-c1cc(OC[C@@H](CC2(C)CC2)NCc2cnc3oc(C4(C)CCC4)cc3n2)nc(NS(=O)(=O)c2cccc(C(=O)O)c2)n1, DMF, 44.8 mM, 16.0 h) of 56%. In data set [2] (18-24 hours), the Emax is more than 60%. The EC50 in data set [2] lay within 3000 to 30000 nM.

In data set [1] (from CCc1cccc(CC)c1-c1cc(OC[C@@H](CC(C)C)NCc2cnc3c(CCOC)c(C(C)(C)C)n(C)c3n2)nc(NS(=O)(=O)c2cccc(C(=O)O)c2)n1, DMF, 34.0 mM, 25.0 °C, 2.0 h), `CCc1cccc(CC)c1-c1cc2nc(n1)NS(=O)(=O)c1cccc(c1)C(=O)N(Cc1cnc3c(CCOC)c(C(C)(C)C)n(C)c3n1)[C@H](CC(C)C)CO2` [IV-92, (11R)-12-[[6-tert-butyl-7-(2-methoxyethyl)-5-methyl-pyrrolo[2,3-b]pyrazin-3-yl]methyl]-6-(2,6-diethylphenyl)-11-isobutyl-2,2-dioxo-9-oxa-2λ^6-thia-3,5,12,19-tetrazatricyclo[12.3.1.14,8]nonadeca-1(18),4(19),5,7,14,16-hexaen-13-one] yielded a ring closure, yield after HPLC of 22%. For the same compound, in data set [2], the concentration giving a half-maximal response (EC50) is less than 1000 nM and the Emax is more than 60%.

`Cc1cccc(C)c1-c1cc2nc(n1)NS(=O)(=O)c1cccc(c1)C(=O)N(Cc1cnc3cc(C(C)(C)C)n(C)c3n1)[C@H](C[C@H]1CCC(C)(C)O1)CO2` [IV-98, (11R)-12-[(6-tert-butyl-5-methyl-pyrrolo[2,3-b]pyrazin-3-yl)methyl]-6-(2,6-dimethylphenyl)-11-[[(2R)-5,5-dimethyltetrahydrofuran-2-yl]methyl]-2,2-dioxo-9-oxa-2λ^6-thia-3,5,12,19-tetrazatricyclo[12.3.1.14,8]nonadeca-1(18),4(19),5,7,14,16-hexaen-13-one] displayed a ring closure, yield after HPLC in data set [1] (from Cc1cccc(C)c1-c1cc(OC[C@@H](C[C@H]2CCC(C)(C)O2)NCc2cnc3cc(C(C)(C)C)n(C)c3n2)nc(NS(=O)(=O)c2cccc(C(=O)O)c2)n1, DMF, 22.7 mM, 25.0 °C) of 58%. In data set [2], the 50% effective concentration (EC50) is less than 1000 nM and the Emax is more than 60%.

In data set [1] (from Cc1cccc(C)c1-c1cc(OC[C@@H](CC2(C)CC2)NCc2nc3cc(C4CC4)oc3cc2F)nc(NS(=O)(=O)c2cccc(C(=O)O)c2)n1, DMF, 19.2 mM, 16.33 h), `Cc1cccc(C)c1-c1cc2nc(n1)NS(=O)(=O)c1cccc(c1)C(=O)N(Cc1nc3cc(C4CC4)oc3cc1F)[C@H](CC1(C)CC1)CO2` [Compound I-197, (11R)-12-[(2-cyclopropyl-6-fluoro-furo[3,2-b]pyridin-5-yl)methyl]-6-(2,6-dimethylphenyl)-11-[(1-methylcyclopropyl)methyl]-2,2-dioxo-9-oxa-2λ^6-thia-3,5,12,19-tetrazatricyclo[12.3.1.14,8]nonadeca-1(18),4(19),5,7,14,16-hexaen-13-one] displayed a ring closure, yield after HPLC of 62%. The Emax in data set [2] (18-24 hours) was more than 60%. In addition, the EC50 in data set [2] was 1000 to 3000 nM.

Regarding `Cc1cccc(C)c1-c1cc2nc(n1)NS(=O)(=O)c1cccc(c1)C(=O)N(Cc1cnc3c(F)c(C4(C)CC4)n(C)c3n1)[C@H](CC1(C)CC1)CO2` [IV-93, (11R)-6-(2,6-dimethylphenyl)-12-[[7-fluoro-5-methyl-6-(1-methylcyclopropyl)pyrrolo[2,3-b]pyrazin-3-yl]methyl]-11-[(1-methylcyclopropyl)methyl]-2,2-dioxo-9-oxa-2λ^6-thia-3,5,12,19-tetraza-tricyclo[12.3.1.14,8]nonadeca-1(18),4(19),5,7,14,16-hexaen-13-one], in data set [1] (from Cc1cccc(C)c1-c1cc(OC[C@@H](CC2(C)CC2)NCc2cnc3c(F)c(C4(C)CC4)n(C)c3n2)nc(NS(=O)(=O)c2cccc(C(=O)O)c2)n1, DMF, 10.1 mM, 25.0 °C, 16.5 h), the ring closure, yield after HPLC came out at 20%. In addition, in data set [2], the EC50 was less than 1000 nM and the Emax was more than 60%.

In data set [1] (from Cc1cccc(C)c1-c1cc(OC[C@@H](CC2(C)CC2)NCc2cnc3c(n2)C(=O)N(C(C)C)C3)nc(NS(=O)(=O)c2cccc(C(=O)O)c2)n1, DMF, 9.0 mM, 16.5 h), `Cc1cccc(C)c1-c1cc2nc(n1)NS(=O)(=O)c1cccc(c1)C(=O)N(Cc1cnc3c(n1)C(=O)N(C(C)C)C3)[C@H](CC1(C)CC1)CO2` [III-21, (11R)-6-(2,6-Dimethylphenyl)-12-[(6-isopropyl-5-oxo-7H-pyrrolo[3,4-b]pyrazin-3-yl)methyl]-11-[(1-methylcyclopropyl)methyl]-2,2-dioxo-9-oxa-2λ^6-thia-3,5,12,19-tetrazatricyclo[12.3.1.14,8]nonadeca-1(18),4(19),5,7,14,16-hexaen-13-one] came in with a ring closure, yield after HPLC of 31%. Moreover, the Emax in data set [2] (18-24 hours) was more than 60%. The 50% effective concentration (EC50) in data set [2] fell in the range of 1000 to 3000 nM.

`Cc1cccc(C)c1-c1cc2nc(n1)NS(=O)(=O)c1cccc(c1)C(=O)N(Cc1cnc3oc(C4CC4)cc3n1)C(CCC1(C)CC1)CO2` (single isomer, unassigned; isomer 1): in data set [1] (from Cc1cccc(C)c1-c1cc(OCC(CCC2(C)CC2)NCc2cnc3oc(C4CC4)cc3n2)nc(NS(=O)(=O)c2cccc(C(=O)O)c2)n1, DMF, 12.8 mM, 24.5 h), the ring closure, yield after HPLC came to 48%.

For the origin of these results see patent publication US20250340574A1, “MODULATORS OF CYSTIC FIBROSIS TRANSMEMBRANE CONDUCTANCE REGULATOR” (Vertex Pharmaceuticals Incorporated, priority 2022, published 2025).
